Consider 23 compounds from patent publication US20240279214A1, “ALPHA4 BETA7 INEGRIN ANTAGONISTS AND USES THEREOF” (XinThera, Inc., priority 2022, published 2024).

For the data set the following is noted: ether bond, 13-membered ring, 100.0 °C.

Read-outs that look alike come from different tables or passages of the source.

As to `CCOC(=O)C[C@H](NC(=O)C(c1cc(Br)cc(Cl)c1F)n1cc(CCN2CC(F)C2)c(C(F)(F)F)cc1=O)c1cc(-c2c(C)cccc2O)cc(C)c1F` (some centres unmarked), the ring closure, isolated yield (the molecule shown is the open-chain precursor, CuI/(1R,2R)-N1,N2-dimethylcyclohexane-1,2-diamine/K2CO3, dioxane, 46.7 mM) amounted to 46.1%.

Take `CCOC(=O)C[C@H](NC(=O)C(c1cc(Br)ccc1F)n1ccc(C(F)(F)F)c(Cl)c1=O)c1cc(-c2c(C)cccc2O)cc(C)c1F` (some centres unmarked): the ring closure, isolated yield (the molecule shown is the open-chain precursor, CuI/K2CO3/(1R,2R)-N1,N2-dimethylcyclohexane-1,2-diamine, 1,4-dioxane, 43.3 mM) is 56.1%.

In the case of `CCOC(=O)C[C@H](NC(=O)C(c1cc(Cl)cc(Br)c1)n1cc(CCN2CC(F)C2)c(C(F)(F)F)cc1=O)c1cc(-c2c(C)cccc2O)cc(C(F)(F)F)c1F` (some centres unmarked), the ring closure, isolated yield (the molecule shown is the open-chain precursor, CuI/(1R,2R)-N1,N2-dimethylcyclohexane-1,2-diamine/K2CO3, dioxane, 19.0 mM) was 56%.

For the setting “the molecule shown is the open-chain precursor, CuI/(1R,2R)-N1,N2-dimethylcyclohexane-1,2-diamine/K2CO3, dioxane, 15.0 mM”, `CCOC(=O)C[C@H](NC(=O)C(c1cc(Cl)cc(Br)c1)n1cc(CCN2CC(F)C2)c(C(F)(F)F)cc1=O)c1cc(-c2c(C)cccc2O)cc(C)c1F` (some centres unmarked) showed a ring closure, isolated yield of 66.5%.

In turn, `CCOC(=O)C[C@H](NC(=O)C(c1cc(Cl)cc(Br)c1)n1cc(CCN2CC(F)C2)c(C(F)(F)F)cc1=O)c1cc(-c2c(O)ccc(F)c2C)cc(C)c1F` (some centres unmarked) gave a ring closure, isolated yield (the molecule shown is the open-chain precursor, CuI/(1R,2R)-N1,N2-dimethylcyclohexane-1,2-diamine/K2CO3, dioxane, 22.0 mM) of 98.3%.

`CCOC(=O)C[C@H](NC(=O)C(c1cccc(Br)c1)n1cc(Cl)c(C(F)(F)F)cc1=O)c1cc(-c2c(C)cccc2O)cc(C(F)(F)F)c1F` (some centres unmarked) registered a ring closure, isolated yield (the molecule shown is the open-chain precursor, CuI/(1R,2R)-N1,N2-dimethylcyclohexane-1,2-diamine/K2CO3, 1,4-dioxane, 23.3 mM) of 71%.

`COC(=O)C[C@@H]1NC(=O)C(n2ccc(C(F)(F)F)cc2=O)c2cc(ccc2F)Oc2cccc(C)c2-n2cc1c(C(F)(F)F)n2` (some centres unmarked) displayed a ring closure, isolated yield (from COC(=O)C[C@H](NC(=O)C(c1cc(Br)ccc1F)n1ccc(C(F)(F)F)cc1=O)c1cn(-c2c(C)cccc2O)nc1C(F)(F)F, CuI/(1R,2R)-N,N'-dimethylcyclohexane-1,2-diamine/K2CO3, 1,4-dioxane, 65.0 mM, 2.0 h) of 22.5%.

`CCOC(=O)C[C@@H]1NC(=O)C(n2cc(CCCN(C)C)c(C(F)(F)F)cc2=O)c2cc(ccc2F)Oc2cccc(C)c2-c2cc(C)c(F)c1c2` (stereo in doubt): the ring closure, isolated yield (from CCOC(=O)C[C@H](NC(=O)C(c1cc(Br)ccc1F)n1cc(CCCN(C)C)c(C(F)(F)F)cc1=O)c1cc(-c2c(C)cccc2O)cc(C)c1F, CuI/K2CO3/(1R,2R)-N1,N2-dimethylcyclohexane-1,2-diamine, 1,4-dioxane, 62.0 mM, 16.0 h) amounted to 55.6%.

`CCOC(=O)C[C@@H]1NC(=O)C(n2cc(CCN(C)C)c(C(F)(F)F)cc2=O)c2cc(ccc2F)Oc2cccc(C)c2-c2cc(C)c(F)c1c2` (stereo in doubt) gave a ring closure, isolated yield (from CCOC(=O)C[C@H](NC(=O)C(c1cc(Br)ccc1F)n1cc(CCN(C)C)c(C(F)(F)F)cc1=O)c1cc(-c2c(C)cccc2O)cc(C)c1F, CuI/K2CO3/(1R,2R)-N1,N2-dimethylcyclohexane-1,2-diamine, 1,4-dioxane, 56.0 mM, 16.0 h) of 70%.

The compound `CCOC(=O)C[C@@H]1NC(=O)C(n2cc(CCN3CC(F)C3)c(C(F)(F)F)cc2=O)c2cc(cc(C(F)(F)F)c2)Oc2cccc(C)c2-c2cc(C)c(F)c1c2` (stereo in doubt) came in with a ring closure, isolated yield (from CCOC(=O)C[C@H](NC(=O)C(c1cc(Br)cc(C(F)(F)F)c1)n1cc(CCN2CC(F)C2)c(C(F)(F)F)cc1=O)c1cc(-c2c(C)cccc2O)cc(C)c1F, CuI/K2CO3/(1R,2R)-N1,N2-dimethylcyclohexane-1,2-diamine, dioxane, 90.0 mM, 2.0 h) of 69%.

For the compound `CCOC(=O)C[C@@H]1NC(=O)C(n2cc(CCN3CC(F)C3)c(C(F)(F)F)cc2=O)c2cc(ccc2Cl)Oc2cccc(C)c2-c2cc(C)c(F)c1c2` (stereo in doubt), the ring closure, isolated yield (from CCOC(=O)C[C@H](NC(=O)C(c1cc(Br)ccc1Cl)n1cc(CCN2CC(F)C2)c(C(F)(F)F)cc1=O)c1cc(-c2c(C)cccc2O)cc(C)c1F, CuI/K2CO3/(1R,2R)-N1,N2-dimethylcyclohexane-1,2-diamine, 1,4-dioxane, 26.7 mM, 16.0 h) turned out to be 50.3%.

`CCOC(=O)C[C@@H]1NC(=O)C(n2cc(CCN3CC(F)C3)c(C(F)(F)F)cc2=O)c2cc(ccc2F)Oc2cc(Cl)cc(C)c2-c2cc(C)c(F)c1c2` (stereo in doubt): where the note is “from CCOC(=O)C[C@H](NC(=O)C(c1cc(Br)ccc1F)n1cc(CCN2CC(F)C2)c(C(F)(F)F)cc1=O)c1cc(-c2c(C)cc(Cl)cc2O)cc(C)c1F, CuI/(1R,2R)-N1,N2-dimethylcyclohexane-1,2-diamine/K2CO3, dioxane, 47.0 mM, 16.0 h”, the ring closure, isolated yield is 52.5%.

As for `CCOC(=O)C[C@@H]1NC(=O)C(n2cc(CCN3CC(F)C3)c(C(F)(F)F)cc2=O)c2cc(ccc2F)Oc2cc(F)cc(C)c2-c2cc(C)c(F)c1c2` (stereo in doubt), the ring closure, isolated yield (from CCOC(=O)C[C@H](NC(=O)C(c1cc(Br)ccc1F)n1cc(CCN2CC(F)C2)c(C(F)(F)F)cc1=O)c1cc(-c2c(C)cc(F)cc2O)cc(C)c1F, CuI/K2CO3/(1R,2R)-N1,N2-dimethylcyclohexane-1,2-diamine, dioxane, 30.0 mM, 16.0 h) is 48.2%.

Consider `CCOC(=O)C[C@@H]1NC(=O)C(n2cc(CCN3CC(F)C3)c(C(F)(F)F)cc2=O)c2cc(ccc2F)Oc2ccc(C)c(C)c2-c2cc(C)c(F)c1c2` (stereo in doubt), for which the ring closure, isolated yield (from CCOC(=O)C[C@H](NC(=O)C(c1cc(Br)ccc1F)n1cc(CCN2CC(F)C2)c(C(F)(F)F)cc1=O)c1cc(-c2c(O)ccc(C)c2C)cc(C)c1F, CuI/(1R,2R)-N1,N2-dimethylcyclohexane-1,2-diamine/K2CO3, dioxane, 15.0 mM, 16.0 h) came to 64.7%.

The compound `CCOC(=O)C[C@@H]1NC(=O)C(n2cc(CCN3CC(F)C3)c(C(F)(F)F)cc2=O)c2cc(ccc2F)Oc2ccc(F)c(C)c2-c2cc(C)c(F)c1c2` (stereo in doubt) came in with a ring closure, isolated yield (from CCOC(=O)C[C@H](NC(=O)C(c1cc(Br)ccc1F)n1cc(CCN2CC(F)C2)c(C(F)(F)F)cc1=O)c1cc(-c2c(O)ccc(F)c2C)cc(C)c1F, CuI/K2CO3/(1R,2R)-N1,N2-dimethylcyclohexane-1,2-diamine, dioxane, 34.0 mM, 16.0 h) of 55.2%.

For the setting “from CCOC(=O)C[C@H](NC(=O)C(c1cc(Br)ccc1F)n1cc(CCN2CC(F)C2)c(C(F)(F)F)cc1=O)c1cc(-c2c(O)cccc2C(F)(F)F)cc(C)c1F, CuI/K2CO3/N1,N2-dimethylcyclohexane-1,2-diamine, dioxane, 16.7 mM, 16.0 h”, `CCOC(=O)C[C@@H]1NC(=O)C(n2cc(CCN3CC(F)C3)c(C(F)(F)F)cc2=O)c2cc(ccc2F)Oc2cccc(C(F)(F)F)c2-c2cc(C)c(F)c1c2` (stereo in doubt) showed a ring closure, isolated yield of 66.7%.

The compound `CCOC(=O)C[C@@H]1NC(=O)C(n2cc(CCN3CC(F)C3)c(C(F)(F)F)cc2=O)c2cc(ccc2F)Oc2cccc(C)c2-c2cc(C(F)F)c(F)c1c2` (stereo in doubt) gave a ring closure, isolated yield (from CCOC(=O)C[C@H](NC(=O)C(c1cc(Br)ccc1F)n1cc(CCN2CC(F)C2)c(C(F)(F)F)cc1=O)c1cc(-c2c(C)cccc2O)cc(C(F)F)c1F, CuI/(1R,2R)-N1,N2-dimethylcyclohexane-1,2-diamine/K2CO3, 1,4-dioxane, 17.3 mM, 16.0 h) of 50.2%.

`CCOC(=O)C[C@@H]1NC(=O)C(n2cc(CCN3CC(F)C3)c(C(F)(F)F)cc2=O)c2cc(ccc2F)Oc2cccc(C)c2-c2cc(C3CC3)c(F)c1c2` (stereo in doubt) returned a ring closure, isolated yield (from CCOC(=O)C[C@H](NC(=O)C(c1cc(Br)ccc1F)n1cc(CCN2CC(F)C2)c(C(F)(F)F)cc1=O)c1cc(-c2c(C)cccc2O)cc(C2CC2)c1F, CuI/K2CO3/(1R,2R)-N1,N2-dimethylcyclohexane-1,2-diamine, dioxane, 25.0 mM, 16.0 h) of 67.3%.

On to `CCOC(=O)C[C@@H]1NC(=O)C(n2cc(CCN3CC(F)C3)c(C(F)(F)F)cc2=O)c2cc(ccc2F)Oc2cccc(C)c2-c2cc(Cl)c(F)c1c2` (stereo in doubt), for which the ring closure, isolated yield (from CCOC(=O)C[C@H](NC(=O)C(c1cc(Br)ccc1F)n1cc(CCN2CC(F)C2)c(C(F)(F)F)cc1=O)c1cc(-c2c(C)cccc2O)cc(Cl)c1F, CuI/K2CO3/(1R,2R)-N1,N2-dimethylcyclohexane-1,2-diamine, 1,4-dioxane, 46.7 mM, 16.0 h) came out at 64.9%.

`CCOC(=O)C[C@@H]1NC(=O)C(n2cc(CCN3CC(F)C3)c(C(F)(F)F)cc2=O)c2cc(ccc2F)Oc2cccc(C)c2-c2cc(F)c(F)c1c2` (stereo in doubt) registered a ring closure, isolated yield (from CCOC(=O)C[C@H](NC(=O)C(c1cc(Br)ccc1F)n1cc(CCN2CC(F)C2)c(C(F)(F)F)cc1=O)c1cc(-c2c(C)cccc2O)cc(F)c1F, CuI/K2CO3/N1,N2-dimethylcyclohexane-1,2-diamine, 1,4-dioxane, 51.7 mM, 16.0 h) of 44.4%.

Regarding `CCOC(=O)C[C@@H]1NC(=O)C(n2cc(CCN3CC(F)C3)c(C(F)(F)F)cc2=O)c2cc(ccc2F)Oc2cccc(Cl)c2-c2cc(C)c(F)c1c2` (stereo in doubt), where the note is “from CCOC(=O)C[C@H](NC(=O)C(c1cc(Br)ccc1F)n1cc(CCN2CC(F)C2)c(C(F)(F)F)cc1=O)c1cc(-c2c(O)cccc2Cl)cc(C)c1F, CuI/(1R,2R)-N1,N2-dimethylcyclohexane-1,2-diamine, 1,4-dioxane, 70.0 mM, 16.0 h”, the ring closure, isolated yield is 49.7%.

`CCOC(=O)C[C@@H]1NC(=O)C(n2cc(CCN3CC(F)C3)cc(CC)c2=O)c2cc(ccc2F)Oc2cccc(C)c2-c2cc(C)c(F)c1c2` (stereo in doubt) returned a ring closure, isolated yield (from CCOC(=O)C[C@H](NC(=O)C(c1cc(Br)ccc1F)n1cc(CCN2CC(F)C2)cc(CC)c1=O)c1cc(-c2c(C)cccc2O)cc(C)c1F, CuI/(1R,2R)-N,N'-dimethylcyclohexane-1,2-diamine/K2CO3, dioxane, 40.0 mM, 16.0 h) of 46.5%.

In turn, `CCOC(=O)C[C@@H]1NC(=O)C(n2ccc(C(F)(F)F)c(C3CC3)c2=O)c2cc(ccc2F)Oc2cccc(C)c2-c2cc(C)c(F)c1c2` (stereo in doubt) yielded a ring closure, isolated yield (from CCOC(=O)C[C@H](NC(=O)C(c1cc(Br)ccc1F)n1ccc(C(F)(F)F)c(C2CC2)c1=O)c1cc(-c2c(C)cccc2O)cc(C)c1F, CuI/K2CO3/(1R,2R)-N1,N2-dimethylcyclohexane-1,2-diamine, dioxane, 45.0 mM) of 46.7%.
